{"source": "ChEMBL document CHEMBL5576117", "about": "“Importance of isoleucine residue in ion channel formation ability of 11-residue peptaibols” (Bioorg Med Chem, 2024)", "key": {"[1]": {"experiment": "Ion conductance property of compound in Diphytanoylphosphatidyl-choline bilayer assessed as ion channel forming ability at 1 uM treated at cis-side of the membrane at +100 mV by tip-dip patch clamp method"}, "[2]": {"tested_on": "Erythrocyte", "experiment": "Hemolytic activity in human erythrocytes at 10 ug/ml incubated for 1 hr by absorbance based analysis", "assay_type": "toxicity, cell-based", "conditions": "dose 10 µg/ml"}, "[3]": {"tested_on": "Erythrocyte", "experiment": "Hemolytic activity in human erythrocytes at 50 ug/ml incubated for 1 hr by absorbance based analysis", "assay_type": "toxicity, cell-based", "conditions": "dose 50 µg/ml"}}, "note": "Calls of active or inactive are those of the source. The rule behind the calls is not given here. Where a SMILES comes first, the peptide text is derived from it. [ ]: non-standard residue; d: D form. Aib = CC(C)(N)C(=O)O"}
{"smiles": "CC[C@H](C)[C@H](NC(=O)[C@@H]1CCCN1C(=O)C(C)(C)NC(=O)[C@H](CC(C)C)NC(=O)[C@@H](NC(=O)[C@@H]1CCCN1C(=O)C(C)(C)NC(=O)[C@@H](NC(=O)[C@@H](NC(=O)[C@H](CC(N)=O)NC(=O)C(C)(C)NC(C)=O)[C@@H](C)CC)[C@@H](C)CC)[C@@H](C)CC)C(=O)O", "note": "(Ac-[Aib]NII[Aib]PIL[Aib]PI-OH)", "values": [{"measurement": "Activity", "setting": "[1]", "result": "Active"}, {"measurement": "Activity", "setting": "[2]", "result": "Non-Toxic"}, {"measurement": "Activity", "setting": "[3]", "result": "Toxic"}]}
{"smiles": "CC[C@H](C)[C@H](NC(=O)[C@@H]1CCCN1C(=O)C(C)(C)NC(=O)[C@@H](NC(=O)[C@@H](NC(=O)[C@@H]1CCCN1C(=O)C(C)(C)NC(=O)[C@@H](NC(=O)[C@H](CC(C)C)NC(=O)[C@H](CC(N)=O)NC(=O)C(C)(C)NC(C)=O)[C@@H](C)CC)[C@@H](C)CC)[C@@H](C)CC)C(=O)O", "note": "(Ac-[Aib]NLI[Aib]PII[Aib]PI-OH)", "values": [{"measurement": "Activity", "setting": "[1]", "result": "Active"}, {"measurement": "Activity", "setting": "[2]", "result": "Non-Toxic"}, {"measurement": "Activity", "setting": "[3]", "result": "Toxic"}]}
{"smiles": "CC[C@H](C)[C@H](NC(=O)[C@H](CC(C)C)NC(=O)[C@H](CC(N)=O)NC(=O)C(C)(C)NC(C)=O)C(=O)NC(C)(C)C(=O)N1CCC[C@H]1C(=O)N[C@H](C(=O)N[C@H](C(=O)NC(C)(C)C(=O)N1CCC[C@H]1C(=O)N[C@@H](CC(C)C)C(=O)O)[C@@H](C)CC)[C@@H](C)CC", "note": "(Ac-[Aib]NLI[Aib]PII[Aib]PL-OH)", "values": [{"measurement": "Activity", "setting": "[1]", "result": "inactive"}, {"measurement": "Activity", "setting": "[2]", "result": "Non-Toxic"}, {"measurement": "Activity", "setting": "[3]", "result": "Toxic"}]}
{"smiles": "CC[C@H](C)[C@H](NC(=O)[C@H](CC(N)=O)NC(=O)C(C)(C)NC(C)=O)C(=O)N[C@H](C(=O)NC(C)(C)C(=O)N1CCC[C@H]1C(=O)N[C@H](C(=O)N[C@@H](CC(C)C)C(=O)NC(C)(C)C(=O)N1CCC[C@H]1C(=O)N[C@@H](CC(C)C)C(=O)O)[C@@H](C)CC)[C@@H](C)CC", "note": "(Ac-[Aib]NII[Aib]PIL[Aib]PL-OH)", "values": [{"measurement": "Activity", "setting": "[1]", "result": "inactive"}, {"measurement": "Activity", "setting": "[2]", "result": "Non-Toxic"}, {"measurement": "Activity", "setting": "[3]", "result": "Toxic"}]}
{"smiles": "CC(=O)NC(C)(C)C(=O)N[C@@H](CC(N)=O)C(=O)N[C@@H](CC(C)C)C(=O)N[C@@H](CC(C)C)C(=O)NC(C)(C)C(=O)N1CCC[C@H]1C(=O)N[C@@H](CC(C)C)C(=O)N[C@@H](CC(C)C)C(=O)NC(C)(C)C(=O)N1CCC[C@H]1C(=O)N[C@@H](CC(C)C)C(=O)O", "note": "(Ac-[Aib]NLL[Aib]PLL[Aib]PL-OH)", "values": [{"measurement": "Activity", "setting": "[1]", "result": "inactive"}, {"measurement": "Activity", "setting": "[2]", "result": "Non-Toxic"}, {"measurement": "Activity", "setting": "[3]", "result": "Toxic"}]}
{"smiles": "CC[C@H](C)[C@H](NC(=O)[C@@H](NC(=O)[C@@H]1CCCN1C(=O)C(C)(C)NC(=O)[C@H](CC(C)C)NC(=O)[C@H](CC(C)C)NC(=O)[C@H](CC(N)=O)NC(=O)C(C)(C)NC(C)=O)[C@@H](C)CC)C(=O)NC(C)(C)C(=O)N1CCC[C@H]1C(=O)N[C@@H](CC(C)C)C(=O)O", "note": "(Ac-[Aib]NLL[Aib]PII[Aib]PL-OH)", "values": [{"measurement": "Activity", "setting": "[2]", "result": "Non-Toxic"}, {"measurement": "Activity", "setting": "[3]", "result": "Toxic"}]}
{"smiles": "CC[C@H](C)[C@H](NC(=O)[C@@H]1CCCN1C(=O)C(C)(C)NC(=O)[C@@H](NC(=O)[C@@H](NC(=O)[C@@H]1CCCN1C(=O)C(C)(C)NC(=O)[C@@H](NC(=O)[C@@H](NC(=O)[C@H](CC(N)=O)NC(=O)C(C)(C)NC(C)=O)[C@@H](C)CC)[C@@H](C)CC)[C@@H](C)CC)[C@@H](C)CC)C(=O)O", "note": "(Ac-[Aib]NII[Aib]PII[Aib]PI-OH)", "values": [{"measurement": "Activity", "setting": "[1]", "result": "Active"}, {"measurement": "Activity", "setting": "[2]", "result": "Non-Toxic"}, {"measurement": "Activity", "setting": "[3]", "result": "Toxic"}]}
{"smiles": "CC[C@H](C)[C@H](NC(=O)[C@@H]1CCCN1C(=O)C(C)(C)NC(=O)[C@@H](NC(=O)[C@@H](NC(=O)[C@@H]1CCCN1C(=O)C(C)(C)NC(=O)[C@H](CC(C)C)NC(=O)[C@H](CC(C)C)NC(=O)[C@H](CC(N)=O)NC(=O)C(C)(C)NC(C)=O)[C@@H](C)CC)[C@@H](C)CC)C(=O)O", "note": "(Ac-[Aib]NLL[Aib]PII[Aib]PI-OH)", "values": [{"measurement": "Activity", "setting": "[1]", "result": "Active"}, {"measurement": "Activity", "setting": "[3]", "result": "Toxic"}]}
{"smiles": "CC[C@H](C)[C@H](NC(=O)[C@H](CC(N)=O)NC(=O)C(C)(C)NC(C)=O)C(=O)N[C@@H](CC(C)C)C(=O)NC(C)(C)C(=O)N1CCC[C@H]1C(=O)N[C@@H](CC(C)C)C(=O)N[C@@H](CC(C)C)C(=O)NC(C)(C)C(=O)N1CCC[C@H]1C(=O)N[C@@H](CC(C)C)C(=O)O", "note": "(Ac-[Aib]NIL[Aib]PLL[Aib]PL-OH)", "values": [{"measurement": "Activity", "setting": "[1]", "result": "inactive"}, {"measurement": "Activity", "setting": "[2]", "result": "Non-Toxic"}, {"measurement": "Activity", "setting": "[3]", "result": "Toxic"}]}
{"smiles": "CC[C@H](C)[C@H](NC(=O)[C@@H]1CCCN1C(=O)C(C)(C)NC(=O)[C@@H](NC(=O)[C@H](CC(C)C)NC(=O)[C@@H]1CCCN1C(=O)C(C)(C)NC(=O)[C@H](CC(C)C)NC(=O)[C@H](CC(C)C)NC(=O)[C@H](CC(N)=O)NC(=O)C(C)(C)NC(C)=O)[C@@H](C)CC)C(=O)O", "note": "(Ac-[Aib]NLL[Aib]PLI[Aib]PI-OH)", "values": [{"measurement": "Activity", "setting": "[1]", "result": "Active"}, {"measurement": "Activity", "setting": "[3]", "result": "Toxic"}]}
{"smiles": "CC[C@H](C)[C@H](NC(=O)[C@H](CC(C)C)NC(=O)[C@@H]1CCCN1C(=O)C(C)(C)NC(=O)[C@H](CC(C)C)NC(=O)[C@H](CC(C)C)NC(=O)[C@H](CC(N)=O)NC(=O)C(C)(C)NC(C)=O)C(=O)NC(C)(C)C(=O)N1CCC[C@H]1C(=O)N[C@@H](CC(C)C)C(=O)O", "note": "(Ac-[Aib]NLL[Aib]PLI[Aib]PL-OH)", "values": [{"measurement": "Activity", "setting": "[2]", "result": "Non-Toxic"}, {"measurement": "Activity", "setting": "[3]", "result": "Toxic"}]}
{"smiles": "CC[C@H](C)[C@H](NC(=O)[C@@H]1CCCN1C(=O)C(C)(C)NC(=O)[C@H](CC(C)C)NC(=O)[C@H](CC(C)C)NC(=O)[C@@H]1CCCN1C(=O)C(C)(C)NC(=O)[C@@H](NC(=O)[C@@H](NC(=O)[C@H](CC(N)=O)NC(=O)C(C)(C)NC(C)=O)[C@@H](C)CC)[C@@H](C)CC)C(=O)O", "note": "(Ac-[Aib]NII[Aib]PLL[Aib]PI-OH)", "values": [{"measurement": "Activity", "setting": "[1]", "result": "Active"}, {"measurement": "Activity", "setting": "[2]", "result": "Non-Toxic"}, {"measurement": "Activity", "setting": "[3]", "result": "Toxic"}]}
{"smiles": "CC[C@H](C)[C@H](NC(=O)[C@H](CC(N)=O)NC(=O)C(C)(C)NC(C)=O)C(=O)N[C@H](C(=O)NC(C)(C)C(=O)N1CCC[C@H]1C(=O)N[C@H](C(=O)N[C@H](C(=O)NC(C)(C)C(=O)N1CCC[C@H]1C(=O)N[C@@H](CC(C)C)C(=O)O)[C@@H](C)CC)[C@@H](C)CC)[C@@H](C)CC", "note": "(Ac-[Aib]NII[Aib]PII[Aib]PL-OH)", "values": [{"measurement": "Activity", "setting": "[1]", "result": "Active"}, {"measurement": "Activity", "setting": "[3]", "result": "Toxic"}]}
{"smiles": "CC[C@H](C)[C@H](NC(=O)[C@@H]1CCCN1C(=O)C(C)(C)NC(=O)[C@H](CC(C)C)NC(=O)[C@H](CC(C)C)NC(=O)[C@@H]1CCCN1C(=O)C(C)(C)NC(=O)[C@H](CC(C)C)NC(=O)[C@H](CC(C)C)NC(=O)[C@H](CC(N)=O)NC(=O)C(C)(C)NC(C)=O)C(=O)O", "note": "(Ac-[Aib]NLL[Aib]PLL[Aib]PI-OH)", "values": [{"measurement": "Activity", "setting": "[1]", "result": "Active"}, {"measurement": "Activity", "setting": "[2]", "result": "Non-Toxic"}, {"measurement": "Activity", "setting": "[3]", "result": "Toxic"}]}
{"smiles": "CC[C@H](C)[C@H](NC(=O)[C@H](CC(N)=O)NC(=O)C(C)(C)NC(C)=O)C(=O)N[C@H](C(=O)NC(C)(C)C(=O)N1CCC[C@H]1C(=O)N[C@@H](CC(C)C)C(=O)N[C@@H](CC(C)C)C(=O)NC(C)(C)C(=O)N1CCC[C@H]1C(=O)N[C@@H](CC(C)C)C(=O)O)[C@@H](C)CC", "note": "(Ac-[Aib]NII[Aib]PLL[Aib]PL-OH)", "values": [{"measurement": "Activity", "setting": "[1]", "result": "Active"}, {"measurement": "Activity", "setting": "[2]", "result": "Non-Toxic"}, {"measurement": "Activity", "setting": "[3]", "result": "Toxic"}]}
